Assay results taken from ChEMBL document CHEMBL4011618, “Discovery of Potent, Selective Stem Cell Factor Receptor/Platelet Derived Growth Factor Receptor Alpha (c-KIT/PDGFRα) Dual Inhibitor for the Treatment of Imatinib-Resistant Gastrointestinal Stromal Tumors (GISTs)” (J Med Chem, 2017).

Assays:
[1] = molecular target: T1, Platelet-derived growth factor receptor alpha (Homo sapiens, UniProt P16234); assay: Inhibition of PDGFRalpha (unknown origin) using FAM-labeled peptide as substrate preincubated for 10 mins followed by substrate addition in presence of ATP by mobility shift assay
T1 sequence (P16234 whole entry): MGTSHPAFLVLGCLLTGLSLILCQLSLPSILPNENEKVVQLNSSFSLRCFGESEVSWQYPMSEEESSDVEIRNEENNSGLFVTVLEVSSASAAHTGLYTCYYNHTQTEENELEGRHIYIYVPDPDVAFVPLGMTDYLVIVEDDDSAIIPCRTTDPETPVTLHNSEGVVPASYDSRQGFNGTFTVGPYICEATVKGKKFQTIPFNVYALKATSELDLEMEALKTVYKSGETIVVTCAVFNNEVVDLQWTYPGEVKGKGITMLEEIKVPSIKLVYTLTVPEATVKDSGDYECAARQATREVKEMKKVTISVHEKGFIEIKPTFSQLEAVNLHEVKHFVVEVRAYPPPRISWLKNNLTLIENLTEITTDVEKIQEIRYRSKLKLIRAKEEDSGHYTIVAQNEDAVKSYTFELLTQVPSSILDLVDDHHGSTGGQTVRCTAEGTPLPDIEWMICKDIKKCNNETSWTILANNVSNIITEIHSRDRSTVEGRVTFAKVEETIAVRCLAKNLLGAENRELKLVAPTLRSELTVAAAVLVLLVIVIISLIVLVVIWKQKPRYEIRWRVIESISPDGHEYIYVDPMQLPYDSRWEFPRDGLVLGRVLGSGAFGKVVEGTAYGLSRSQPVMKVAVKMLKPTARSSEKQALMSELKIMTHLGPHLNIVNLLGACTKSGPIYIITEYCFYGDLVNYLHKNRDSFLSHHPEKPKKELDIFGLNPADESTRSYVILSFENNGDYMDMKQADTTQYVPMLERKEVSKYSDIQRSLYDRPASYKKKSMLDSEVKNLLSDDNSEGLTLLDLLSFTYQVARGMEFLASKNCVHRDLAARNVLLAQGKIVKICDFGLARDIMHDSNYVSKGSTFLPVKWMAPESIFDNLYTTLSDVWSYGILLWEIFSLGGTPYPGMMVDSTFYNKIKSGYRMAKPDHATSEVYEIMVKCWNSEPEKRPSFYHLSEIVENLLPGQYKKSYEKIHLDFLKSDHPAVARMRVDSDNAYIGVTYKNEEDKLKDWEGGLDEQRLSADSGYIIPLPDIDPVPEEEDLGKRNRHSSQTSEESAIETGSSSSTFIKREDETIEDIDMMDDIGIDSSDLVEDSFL

[2] = molecular target: Vascular endothelial growth factor receptor 2 (Homo sapiens, UniProt P35968)
Sequence of Vascular endothelial growth factor receptor 2 (P35968 whole entry): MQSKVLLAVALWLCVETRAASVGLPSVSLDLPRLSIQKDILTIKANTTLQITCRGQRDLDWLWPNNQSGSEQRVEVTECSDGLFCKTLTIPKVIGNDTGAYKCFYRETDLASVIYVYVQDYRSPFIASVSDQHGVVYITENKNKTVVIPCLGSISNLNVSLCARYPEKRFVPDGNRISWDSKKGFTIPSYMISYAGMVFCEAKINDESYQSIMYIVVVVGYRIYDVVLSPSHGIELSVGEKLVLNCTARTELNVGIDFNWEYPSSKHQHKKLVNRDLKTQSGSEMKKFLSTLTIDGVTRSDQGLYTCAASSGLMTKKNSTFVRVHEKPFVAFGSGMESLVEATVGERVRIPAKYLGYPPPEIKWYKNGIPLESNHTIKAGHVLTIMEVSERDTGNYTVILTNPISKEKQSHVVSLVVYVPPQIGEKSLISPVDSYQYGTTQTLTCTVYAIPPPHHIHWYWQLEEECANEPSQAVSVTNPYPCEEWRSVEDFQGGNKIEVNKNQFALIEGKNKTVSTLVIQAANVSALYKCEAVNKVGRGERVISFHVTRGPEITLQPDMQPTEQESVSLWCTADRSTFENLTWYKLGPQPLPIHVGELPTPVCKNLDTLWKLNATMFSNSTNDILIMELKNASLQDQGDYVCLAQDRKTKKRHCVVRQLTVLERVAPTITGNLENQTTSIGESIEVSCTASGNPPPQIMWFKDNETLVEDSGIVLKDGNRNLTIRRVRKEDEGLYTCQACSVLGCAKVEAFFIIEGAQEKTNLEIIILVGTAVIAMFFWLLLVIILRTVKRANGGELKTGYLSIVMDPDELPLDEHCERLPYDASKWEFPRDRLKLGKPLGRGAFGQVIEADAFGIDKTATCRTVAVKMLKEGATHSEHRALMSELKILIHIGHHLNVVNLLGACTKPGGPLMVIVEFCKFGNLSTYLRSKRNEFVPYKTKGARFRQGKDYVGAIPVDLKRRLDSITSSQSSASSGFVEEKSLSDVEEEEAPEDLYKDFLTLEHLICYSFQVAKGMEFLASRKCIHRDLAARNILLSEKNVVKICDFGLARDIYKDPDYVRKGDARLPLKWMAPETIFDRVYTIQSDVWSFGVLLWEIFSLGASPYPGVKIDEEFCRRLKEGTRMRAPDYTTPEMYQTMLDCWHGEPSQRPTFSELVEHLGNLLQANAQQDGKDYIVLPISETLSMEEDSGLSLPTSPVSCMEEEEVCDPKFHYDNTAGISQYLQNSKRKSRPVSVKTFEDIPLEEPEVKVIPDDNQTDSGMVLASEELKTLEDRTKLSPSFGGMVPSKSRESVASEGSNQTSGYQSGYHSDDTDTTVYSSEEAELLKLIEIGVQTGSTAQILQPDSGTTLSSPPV
Description: Inhibition of VEGFR2 (unknown origin) using FAM-labeled peptide as substrate preincubated for 10 mins followed by substrate addition in presence of ATP by mobility shift assay

[3] = molecular target: T2, Mast/stem cell growth factor receptor Kit (Homo sapiens, UniProt P10721)
T2 sequence (P10721 whole entry): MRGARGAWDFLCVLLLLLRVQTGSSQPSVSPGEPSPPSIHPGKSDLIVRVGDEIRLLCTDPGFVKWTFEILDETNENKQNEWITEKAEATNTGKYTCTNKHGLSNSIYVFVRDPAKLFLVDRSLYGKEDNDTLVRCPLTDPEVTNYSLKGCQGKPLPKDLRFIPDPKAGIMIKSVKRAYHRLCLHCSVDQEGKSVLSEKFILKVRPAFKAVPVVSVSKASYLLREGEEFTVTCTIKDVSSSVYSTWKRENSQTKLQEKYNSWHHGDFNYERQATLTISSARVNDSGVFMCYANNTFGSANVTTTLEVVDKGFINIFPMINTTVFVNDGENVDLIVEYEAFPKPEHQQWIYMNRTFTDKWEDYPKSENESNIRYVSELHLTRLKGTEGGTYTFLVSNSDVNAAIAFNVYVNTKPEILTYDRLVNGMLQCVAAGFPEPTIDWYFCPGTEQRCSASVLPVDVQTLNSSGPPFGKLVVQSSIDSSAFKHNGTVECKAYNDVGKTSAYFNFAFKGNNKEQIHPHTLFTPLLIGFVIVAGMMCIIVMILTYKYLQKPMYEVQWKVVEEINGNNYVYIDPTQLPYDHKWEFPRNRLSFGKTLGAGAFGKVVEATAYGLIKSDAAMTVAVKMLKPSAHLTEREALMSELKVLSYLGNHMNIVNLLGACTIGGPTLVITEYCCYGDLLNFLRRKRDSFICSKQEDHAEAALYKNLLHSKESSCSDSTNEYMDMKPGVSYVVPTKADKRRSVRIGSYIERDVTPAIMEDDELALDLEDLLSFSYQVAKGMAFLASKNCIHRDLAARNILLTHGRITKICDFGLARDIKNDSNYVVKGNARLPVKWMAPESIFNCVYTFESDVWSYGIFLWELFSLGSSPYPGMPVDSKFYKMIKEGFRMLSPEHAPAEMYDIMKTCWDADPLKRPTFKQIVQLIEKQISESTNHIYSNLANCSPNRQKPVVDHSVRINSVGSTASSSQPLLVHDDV
Description: Inhibition of cKIT (unknown origin) using FAM-labeled peptide as substrate preincubated for 10 mins followed by substrate addition in presence of ATP by mobility shift assay

[4] = molecular target: Fibroblast growth factor receptor 1 (Homo sapiens, UniProt P11362); assay: Inhibition of FGFR1 (unknown origin) using FAM-labeled peptide as substrate preincubated for 10 mins followed by substrate addition in presence of ATP by mobility shift assay
Sequence of Fibroblast growth factor receptor 1 (P11362 whole entry): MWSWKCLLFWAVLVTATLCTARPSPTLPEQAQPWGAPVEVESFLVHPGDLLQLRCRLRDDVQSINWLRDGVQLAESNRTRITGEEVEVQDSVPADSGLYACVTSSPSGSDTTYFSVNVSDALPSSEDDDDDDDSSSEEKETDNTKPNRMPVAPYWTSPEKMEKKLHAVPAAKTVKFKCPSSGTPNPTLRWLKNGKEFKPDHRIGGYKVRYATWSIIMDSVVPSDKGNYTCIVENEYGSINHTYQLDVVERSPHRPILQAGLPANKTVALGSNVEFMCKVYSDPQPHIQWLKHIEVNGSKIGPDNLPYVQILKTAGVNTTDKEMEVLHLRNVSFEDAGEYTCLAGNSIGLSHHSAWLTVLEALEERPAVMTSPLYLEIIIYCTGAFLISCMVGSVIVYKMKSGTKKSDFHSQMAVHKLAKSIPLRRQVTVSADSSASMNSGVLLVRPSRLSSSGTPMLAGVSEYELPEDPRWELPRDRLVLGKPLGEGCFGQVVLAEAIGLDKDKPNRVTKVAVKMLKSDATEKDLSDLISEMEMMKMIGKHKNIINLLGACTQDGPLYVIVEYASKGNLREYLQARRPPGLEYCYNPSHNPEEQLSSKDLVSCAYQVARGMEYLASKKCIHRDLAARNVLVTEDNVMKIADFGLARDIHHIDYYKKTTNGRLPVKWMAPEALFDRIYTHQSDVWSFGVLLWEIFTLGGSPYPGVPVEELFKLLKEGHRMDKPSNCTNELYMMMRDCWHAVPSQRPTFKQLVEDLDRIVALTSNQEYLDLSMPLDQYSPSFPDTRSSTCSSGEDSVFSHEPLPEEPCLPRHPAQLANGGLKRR

[5] = molecular target: T2, Mast/stem cell growth factor receptor Kit; remark: listed apart in the source
Description: Inhibition of TEL-fused cKIT (unknown origin) expressed in mouse BAF3 cells assessed as cell growth inhibition after 72 hrs by cell titer-glo assay

[6] = tested on: Mast/stem cell growth factor receptor Kit (Homo sapiens), P10721 [T670I]
Sequence of Mast/stem cell growth factor receptor Kit (Homo sapiens), P10721 [T670I] (P10721 whole entry T670I): as the sequence (P10721 whole entry) above, with T670I counted along it
Description: Inhibition of TEL-fused cKIT T670I mutant (unknown origin) expressed in mouse BAF3 cells assessed as cell growth inhibition after 72 hrs by cell titer-glo assay

[7] = molecular target: T1, Platelet-derived growth factor receptor alpha
Description: Inhibition of TEL-fused PDGFRalpha (unknown origin) expressed in mouse BAF3 cells assessed as cell growth inhibition after 72 hrs by cell titer-glo assay

[8] = tested on: Platelet-derived growth factor receptor alpha (Homo sapiens), P16234 [T674I]
Sequence of Platelet-derived growth factor receptor alpha (Homo sapiens), P16234 [T674I] (P16234 whole entry T674I): as the sequence (P16234 whole entry) above, with T674I counted along it
Description: Inhibition of TEL-fused PDGFRalpha T674I mutant (unknown origin) expressed in mouse BAF3 cells assessed as cell growth inhibition after 72 hrs by cell titer-glo assay

Compound	IC50 [1]	IC50 [2]	IC50 [3]	IC50 [4]	GI50 [5]	GI50 [6]	GI50 [7]	GI50 [8]
Cc1n[nH]c2nccc(-c3ccc(NC(=O)Nc4ccccc4N4CCOCC4)cc3)c12	4080 nM	36900 nM	6440 nM					
Cc1n[nH]c2nccc(-c3ccc(NC(=O)NC4CC4)cc3)c12	1130 nM	4520 nM	553 nM					
Cc1n[nH]c2nccc(-c3ccc(NC(=O)Nc4cccc(Cl)c4)cc3)c12	182 nM	4050 nM	2400 nM					
CCc1cccc(NC(=O)Nc2ccc(-c3ccnc4[nH]nc(CO)c34)cc2)c1	32 nM	3360 nM	3.7 nM					
Cc1cccc(NC(=O)Nc2ccc(-c3cc(O)nc4[nH]nc(C)c34)cc2)c1	560 nM	1220 nM		2260 nM				
Cc1n[nH]c2nccc(-c3ccc(NC(=O)NC4CCC4)cc3)c12	732 nM	5000 nM	318 nM					
Cc1n[nH]c2nccc(-c3ccc(NC(=O)NCC(C)C)cc3)c12	1120 nM	8630 nM	320 nM					
Cc1n[nH]c2nccc(-c3ccc(NC(=O)Nc4ccc(N(C)C)cc4)cc3)c12	309 nM	9050 nM	9.3 nM					
CCCNC(=O)Nc1ccc(-c2ccnc3[nH]nc(C)c23)cc1	> 50000 nM	> 50000 nM	21400 nM					
Cc1ccccc1NC(=O)Nc1ccc(-c2ccnc3[nH]nc(C)c23)cc1	305 nM	4320 nM	10900 nM					
CCc1cccc(NC(=O)Nc2ccc(-c3ccnc4[nH]nc(C)c34)cc2)c1	22 nM	1210 nM	3.9 nM					
Cc1n[nH]c2nccc(-c3ccc(NC(=O)Nc4cccc(F)c4)cc3)c12	262 nM	6230 nM	4790 nM					
Cc1n[nH]c2nccc(-c3ccc(NC(=O)Nc4ccccc4N4CCN(C)CC4)cc3)c12	928 nM	4160 nM	4580 nM					
Cc1n[nH]c2nccc(-c3ccc(NC(=O)Nc4cnc5ccccc5c4)cc3)c12	22 nM	1840 nM	1.9 nM		83.3 nM	217 nM	10.4 nM	1510 nM
Cc1n[nH]c2nccc(-c3ccc(NC(=O)Nc4cccc(Br)c4)cc3)c12	137 nM	3150 nM		> 50000 nM				
Cc1cccc(NC(=O)Nc2ccc(C3CC(O)=Nc4[nH]nc(C)c43)cc2)c1 (centres undefined)	> 50000 nM	> 50000 nM		18300 nM				
Cc1n[nH]c2nccc(-c3ccc(NC(=O)NCc4ccccn4)cc3)c12	472 nM	4080 nM	78 nM					
Cc1n[nH]c2nccc(-c3ccc(NC(=O)NCc4ccccc4)cc3)c12	> 50000 nM	> 50000 nM	46100 nM					
Cc1n[nH]c2nccc(-c3ccc(NC(=S)Nc4cccc(C(F)(F)F)c4)cc3)c12	1570 nM	8010 nM		42900 nM				

Compound	IC50 [1]	IC50 [2]	IC50 [3]	IC50 [4]	GI50 [5]	GI50 [6]	GI50 [7]	GI50 [8]
Cc1ccc(F)c(NC(=O)Nc2ccc(C3CC(O)=Nc4[nH]nc(C)c43)cc2)c1 (centres undefined)	> 50000 nM	> 50000 nM		33800 nM	> 10000 nM	> 10000 nM	4250 nM	> 10000 nM
Cc1n[nH]c2nccc(-c3ccc(NC(=O)Nc4cccc(CN(C)C)c4)cc3)c12	4610 nM	15900 nM	22100 nM					
Cc1ccc(F)c(NC(=O)Nc2ccc(-c3cccc4[nH]nc(N)c34)cc2)c1 [LINIFANIB]	15 nM				88.7 nM	37.1 nM	10.4 nM	104 nM
Cc1n[nH]c2nccc(-c3ccc(NC(=O)NC4Cc5ccccc5C4)cc3)c12	83 nM	> 50000 nM	8.7 nM					
Cc1cccc(NC(=O)Nc2ccc(-c3ccnc4[nH]nc(CO)c34)cc2)c1	87 nM	4920 nM	2.4 nM		1070 nM	1840 nM	10.4 nM	5000 nM
Cc1n[nH]c2nccc(-c3ccc(NC(=O)NCc4cccs4)cc3)c12	157 nM	1790 nM	26 nM					
Cc1n[nH]c2nccc(-c3ccc(NC(=O)Nc4cccc(C#N)c4)cc3)c12	21400 nM	> 50000 nM	201 nM					
Cc1ccc(F)c(NC(=O)Nc2ccc(-c3cc(O)nc4[nH]nc(C)c34)cc2)c1	1180 nM	1860 nM		4640 nM	> 10000 nM	> 10000 nM	204 nM	> 10000 nM
Cc1n[nH]c2nccc(-c3ccc(NC(=O)NC4CCCCC4)cc3)c12	> 50000 nM	> 50000 nM	> 50000 nM					
CCc1cccc(NC(=O)Nc2ccc(-c3ccnc4[nH]nc(C(F)(F)F)c34)cc2)c1	> 5000 nM	> 50000 nM	6770 nM					
Cc1n[nH]c2nccc(-c3ccc(NC(=O)NCCCCc4ccccc4)cc3)c12	135 nM	10900 nM	6.2 nM					
Cc1n[nH]c2nccc(-c3ccc(NC(=O)Nc4cccc5ccccc45)cc3)c12	97 nM	> 50000 nM	3.6 nM					
Cc1n[nH]c2nccc(-c3ccc(NC(=O)Nc4ccccn4)cc3)c12	401 nM	> 50000 nM	20 nM					
Cc1n[nH]c2nccc(-c3ccc(NC(=S)Nc4cccc(Br)c4)cc3)c12	1080 nM	6240 nM		20000 nM				
Cc1cccc(NC(=O)Nc2ccc(-c3ccnc4[nH]nc(C(F)(F)F)c34)cc2)c1	> 50000 nM	> 50000 nM	> 50000 nM		> 10000 nM	> 10000 nM	465 nM	> 10000 nM
Cc1n[nH]c2nccc(-c3ccc(NC(=O)Nc4ccn[nH]4)cc3)c12	411 nM	2390 nM	120 nM					
Cc1cc(N2CCN(C)CC2)ccc1NC(=O)Nc1ccc(-c2ccnc3[nH]nc(C)c23)cc1	1100 nM	6820 nM	2220 nM					
CCCCCNC(=O)Nc1ccc(-c2ccnc3[nH]nc(C)c23)cc1	164 nM	> 50000 nM	3.5 nM					

Other lines, results leading:

IC50 [1]	IC50 [2]	IC50 [3]	IC50 [4]	GI50 [5]	GI50 [6]	GI50 [7]	GI50 [8]	Compound
65 nM	5610 nM	1830 nM						Cc1ccc(NC(=O)Nc2ccc(-c3ccnc4[nH]nc(C)c34)cc2)cc1
87 nM	4290 nM		> 50000 nM					Cc1ccc(F)c(NC(=O)Nc2ccc(-c3ccnc4[nH]nc(C)c34)cc2)c1
1780 nM	3940 nM	1950 nM						Cc1ccc(N2CCN(C)CC2)c(NC(=O)Nc2ccc(-c3ccnc4[nH]nc(C)c34)cc2)c1
387 nM	3500 nM	51 nM						Cc1n[nH]c2nccc(-c3ccc(NC(=O)NCc4ccco4)cc3)c12
> 50000 nM	> 50000 nM	38700 nM						CCNC(=O)Nc1ccc(-c2ccnc3[nH]nc(C)c23)cc1
124 nM	> 50000 nM	20 nM						Cc1n[nH]c2nccc(-c3ccc(NC(=O)Nc4ccc5ccccc5c4)cc3)c12
27 nM	10500 nM	1.4 nM		3030 nM	1780 nM	10.4 nM	3180 nM	CCCCCCNC(=O)Nc1ccc(-c2ccnc3[nH]nc(C)c23)cc1
1470 nM	11400 nM	1420 nM						Cc1n[nH]c2nccc(-c3ccc(NC(=O)NC(C)(C)C)cc3)c12
82 nM		3.7 nM						Cc1n[nH]c2nccc(-c3ccc(NC(=O)NCCc4ccccc4)cc3)c12
215 nM	6240 nM	19 nM						Cc1n[nH]c2nccc(-c3ccc(NC(=O)Nc4cccc(N5CCN(C)CC5)c4)cc3)c12
313 nM	3110 nM	14 nM						Cc1n[nH]c2nccc(-c3ccc(NC(=O)Nc4cccnc4)cc3)c12
576 nM	6230 nM	144 nM		> 10000 nM	> 10000 nM	13.3 nM	> 10000 nM	Cc1n[nH]c2nccc(-c3ccc(NC(=O)NC4CCCC4)cc3)c12
136 nM	42000 nM	12 nM						CCN(CC)c1cccc(NC(=O)Nc2ccc(-c3ccnc4[nH]nc(C)c34)cc2)c1
24 nM	3860 nM	1.7 nM		3020 nM	1670 nM	10.4 nM	2050 nM	Cc1n[nH]c2nccc(-c3ccc(NC(=O)NCCCc4ccccc4)cc3)c12
127 nM	3700 nM	7.2 nM						Cc1cc(NC(=O)Nc2ccc(-c3ccnc4[nH]nc(C)c34)cc2)ccc1N1CCN(C)CC1
176 nM	5350 nM	12 nM						CCN(CC)c1ccc(NC(=O)Nc2ccc(-c3ccnc4[nH]nc(C)c34)cc2)cc1
43900 nM	> 50000 nM	20600 nM						CCCCNC(=O)Nc1ccc(-c2ccnc3[nH]nc(C)c23)cc1
106 nM	1920 nM		> 50000 nM					Cc1n[nH]c2nccc(-c3ccc(NC(=O)Nc4cccc(C(F)(F)F)c4)cc3)c12
83 nM	6920 nM	2.6 nM						Cc1n[nH]c2nccc(-c3ccc(NC(=O)Nc4cccc(N(C)C)c4)cc3)c12
18900 nM	26200 nM	397 nM						Cc1ccc(N2CCOCC2)c(NC(=O)Nc2ccc(-c3ccnc4[nH]nc(C)c34)cc2)c1
